Consider one substance from publication PMC10042146, “SARS-CoV-2 M^pro Protease Variants of Concern Display Altered Viral Substrate and Cell Host Target Galectin-8 Processing but Retain Sensitivity toward Antivirals” (ACS Central Science, 2023).

For the experiment, the target named is T1, SARS-CoV-2 M^pro (wild type) (Severe acute respiratory syndrome coronavirus 2, UniProt P0DTD1).
T1 construct: gene rep; mature nsp5 cut from replicase polyprotein 1ab (also pp1a); homodimer; purification details only in supplement
Type of experiment: biochemical.

The IC50 is the point on the concentration scale where inhibition reaches its midpoint. Read a high IC50 as lower potency. In turn, AVI-8053 displayed an IC50 of 19 nM. That is a double-digit nanomolar value.
